From patent US20160175318A1, “COMPOSITIONS COMPRISING ANTIBACTERIAL AGENT AND TAZOBACTAM” (WOCKHARDT LIMITED, priority 2013, published 2016)
Read-outs that look alike come from different tables or passages of the source.

Tests used:
Format in all cases: cell-based
E. cloacae M-20 = experiment: MIC by agar dilution (CLSI) against highly resistant ESBL strain; conditions: E. cloacae M-20
Description: (§1) The results on activity of cefepime and other cephalosporin antibacterial agents in combination with tazobactam against highly resistant ESBL strains are given Table 1. In a typical study, overnight grown bacterial cultures were diluted appropriately and inoculated on the agar media containing doubling dilutions of the antibiotic. Observation for growth or no growth was performed after 16-20 h of incubation at 35±2° C. in ambient air. The overall procedure was performed as per Clinical and Laboratory Standards Institute (CLSI) recommendations. This experimental was followed for Examples 2-4 and 6 below (Table 2-4 and 7).

E. coli M50 [1] = experiment: as above
Description: as §1

K. pneumoniae M150 = experiment: as above; conditions: Klebsiella pneumoniae, M150, K. pneumoniae M150, read-out: MIC
Description: as §1

E. coli 7MP [2] = experiment: as above; conditions: E. coli 7MP
Description: as §1

E. coli B-89 [3] = experiment: as above; conditions: E. coli B-89
Description: as §1

E. coli B-123 = experiment: Quantitative drug diffusion assay (disc, zone of inhibition, CLSI); set-up: key to Interpretation of zone as per CLSI recommendations: R: Resistant; I: Intermediate; S: Sensitive (Interpretation as per CLSI recommendations, 2010)
Excerpt: (§2) Activity of cefepime in combination with tazobactam and various penicillins in combination with respective ESBL inhibitors was also investigated against highly resistant ESBL strains in quantitative drug diffusion assay performed as per CLSI recommendations (Clinical and Laboratory Standards Institute (CLSI), performance Standards for Antimicrobial Susceptibility Testing, 20th Informational Supplement, M 100-S20, Volume 30, No. 1, 2010).
(§3) In a typical study, overnight grown bacterial cultures after appropriate dilution were seed inoculated in the molten, cooled agar media and plates poured. Antibiotics containing 6 mm diameter discs were place on the top of the agar surface. Zone of inhibition based observation was performed after 16-18 h of incubation at 35±2° C. in ambient air. The overall procedure was performed as per CLSI recommendations (Table 5 and 6). These assays are routinely used in determining possibility of treating a particular infection using antibiotic and/or their combinations. For example, in case of treating an infection caused by E. coli (M138) using Augmentin® [commercially available combination: Amoxicillin (500 mg)+Clavulanic acid (125 mg)], the zone inhibition values need to be in the sensitive (S) range.

E. coli M50 [4] = experiment: as above; set-up: key to Interpretation of zone as per CLSI recommendations: R: Resistant; I: Intermediate; S: Sensitive (Interpretation as per CLSI recommendations, 2010)
Excerpt: as §2, §3

E. coli S-112 = experiment: as above; set-up: key to Interpretation of zone as per CLSI recommendations: R: Resistant; I: Intermediate; S: Sensitive (Interpretation as per CLSI recommendations, 2010)
Excerpt: as §2, §3

E. coli M-138 = experiment: as above; set-up: key to Interpretation of zone as per CLSI recommendations: R: Resistant; I: Intermediate; S: Sensitive (Interpretation as per CLSI recommendations, 2010)
Excerpt: as §2, §3

E. coli 7MP [5] = experiment: as above; set-up: key to Interpretation of zone as per CLSI recommendations: R: Resistant; I: Intermediate; S: Sensitive (Interpretation as per CLSI recommendations, 2010)
Excerpt: as §2, §3

E. coli B-89 [6] = experiment: as above; set-up: key to Interpretation of zone as per CLSI recommendations: R: Resistant; I: Intermediate; S: Sensitive (Interpretation as per CLSI recommendations, 2010)
Excerpt: as §2, §3

[7] = ESBL inhibitor 0 mcg (antibiotic alone)

For `CC1(C)S[C@@H]2[C@H](NC(=O)[C@H](N)c3ccccc3)C(=O)N2[C@H]1C(=O)O` [Ampicillin], which MIC (E. cloacae M-20; with Tazobactam 4 mcg) is on record?
Its MIC is over 64 µg/mL.

What about the MIC (E. cloacae M-20; with Tazobactam 8 mcg) of the same molecule?
The MIC was over 64 µg/mL.

And the MIC (E. cloacae M-20; Enterobacter cloacae, M20, 20 h, Tazobactam 0 mcg (antibiotic alone), read-out: MIC)?
The MIC was over 128 µg/mL.

What about the MIC (E. coli M50 [1]; Escherichia coli, 20 h, Tazobactam 0 mcg (antibiotic alone), read-out: MIC) of the same molecule?
Its MIC is over 128 µg/mL.

What about the MIC (E. coli M50 [1]; with Tazobactam 4 mcg) of the same molecule?
Its MIC is over 64 µg/mL.

And the MIC (E. coli M50 [1]; with Tazobactam 8 mcg)?
The MIC was over 64 µg/mL.

What about the MIC (K. pneumoniae M150; Tazobactam 0 mcg (antibiotic alone)) of the same molecule?
The MIC was over 128 µg/mL.

And the MIC (K. pneumoniae M150; with Tazobactam 4 mcg)?
Its MIC is over 64 µg/mL.

What about the MIC (K. pneumoniae M150; with Tazobactam 8 mcg) of the same molecule?
Its MIC is over 64 µg/mL.

And the MIC (E. coli 7MP [2]; with Tazobactam 4 mcg)?
Its MIC is over 64 µg/mL.

And the MIC (E. coli 7MP [2]; with Tazobactam 8 mcg)?
Its MIC is over 64 µg/mL.

What about the MIC (E. coli 7MP [2]; Escherichia coli, 7MP, 20 h, Tazobactam 0 mcg (antibiotic alone), read-out: MIC) of the same molecule?
The MIC was over 128 µg/mL.

And the MIC (E. coli B-89 [3]; with Tazobactam 4 mcg)?
The MIC was over 64 µg/mL.

And the MIC (E. coli B-89 [3]; with Tazobactam 8 mcg)?
The MIC was over 64 µg/mL.

What about the MIC (E. coli B-89 [3]; Escherichia coli, B89, 20 h, Tazobactam 0 mcg (antibiotic alone), read-out: MIC) of the same molecule?
Its MIC is over 128 µg/mL.

And the “Zone of Inhibition” value (E. coli B-123; [7])?
The value was “Nil”.

What about the “Interpretation of zone as per CLSI recommendations” value (E. coli B-123; Table 5, ESBL inhibitor 0 mcg) of the same molecule?
Its value is “(R)”.

And the “Interpretation of zone as per CLSI recommendations” value (E. coli B-123; Table 5, with Sulbactam 10 mcg)?
Its value is “(R)”.

What about the “Interpretation of zone as per CLSI recommendations” value (E. coli B-123; Table 6, ESBL inhibitor 0 mcg) of the same molecule?
Its value is “(R)”.

What about the “Interpretation of zone as per CLSI recommendations” value (E. coli B-123; Table 6, with Sulbactam 10 mcg) of the same molecule?
Its value is “(R)”.

What about the “Zone of Inhibition” value (E. coli B-123; with Sulbactam 10 mcg) of the same molecule?
The value was “Nil”.

What about the “Zone of Inhibition” value (E. coli M50 [4]; [7]) of the same molecule?
The value was “Nil”.

And the “Interpretation of zone as per CLSI recommendations” value (E. coli M50 [4]; Table 5, ESBL inhibitor 0 mcg)?
Its value is “(R)”.

What about the “Interpretation of zone as per CLSI recommendations” value (E. coli M50 [4]; Table 5, with Sulbactam 10 mcg) of the same molecule?
Its value is “(R)”.

What about the “Interpretation of zone as per CLSI recommendations” value (E. coli M50 [4]; Table 6, ESBL inhibitor 0 mcg) of the same molecule?
The value was “(R)”.

What about the “Interpretation of zone as per CLSI recommendations” value (E. coli M50 [4]; Table 6, with Sulbactam 10 mcg) of the same molecule?
The value was “(R)”.

And the “Zone of Inhibition” value (E. coli M50 [4]; with Sulbactam 10 mcg)?
The value was “Nil”.

And the “Zone of Inhibition” value (E. coli S-112; [7])?
The value was “Nil”.

What about the “Interpretation of zone as per CLSI recommendations” value (E. coli S-112; Table 5, ESBL inhibitor 0 mcg) of the same molecule?
The value was “(R)”.

And the “Interpretation of zone as per CLSI recommendations” value (E. coli S-112; Table 5, with Sulbactam 10 mcg)?
Its value is “(R)”.

What about the “Interpretation of zone as per CLSI recommendations” value (E. coli S-112; Table 6, ESBL inhibitor 0 mcg) of the same molecule?
Its value is “(R)”.

And the “Interpretation of zone as per CLSI recommendations” value (E. coli S-112; Table 6, with Sulbactam 10 mcg)?
The value was “(R)”.

And the “Zone of Inhibition” value (E. coli S-112; with Sulbactam 10 mcg)?
The value was “Nil”.

And the “Zone of Inhibition” value (E. coli M-138; [7])?
The value was “Nil”.

What about the “Interpretation of zone as per CLSI recommendations” value (E. coli M-138; Table 5, ESBL inhibitor 0 mcg) of the same molecule?
Its value is “(R)”.

What about the “Interpretation of zone as per CLSI recommendations” value (E. coli M-138; Table 5, with Sulbactam 10 mcg) of the same molecule?
Its value is “(R)”.

What about the “Interpretation of zone as per CLSI recommendations” value (E. coli M-138; Table 6, ESBL inhibitor 0 mcg) of the same molecule?
Its value is “(R)”.

What about the “Interpretation of zone as per CLSI recommendations” value (E. coli M-138; Table 6, with Sulbactam 10 mcg) of the same molecule?
Its value is “(R)”.

What about the “Zone of Inhibition” value (E. coli M-138; with Sulbactam 10 mcg) of the same molecule?
The value was “Nil”.

And the “Zone of Inhibition” value (E. coli 7MP [5]; [7])?
Its value is “Nil”.

What about the “Interpretation of zone as per CLSI recommendations” value (E. coli 7MP [5]; Table 5, ESBL inhibitor 0 mcg) of the same molecule?
Its value is “(R)”.

And the “Interpretation of zone as per CLSI recommendations” value (E. coli 7MP [5]; Table 5, with Sulbactam 10 mcg)?
The value was “(R)”.

And the “Interpretation of zone as per CLSI recommendations” value (E. coli 7MP [5]; Table 6, ESBL inhibitor 0 mcg)?
The value was “(R)”.

What about the “Interpretation of zone as per CLSI recommendations” value (E. coli 7MP [5]; Table 6, with Sulbactam 10 mcg) of the same molecule?
Its value is “(R)”.

And the “Zone of Inhibition” value (E. coli 7MP [5]; with Sulbactam 10 mcg)?
Its value is “Nil”.

What about the “Zone of Inhibition” value (E. coli B-89 [6]; [7]) of the same molecule?
Its value is “Nil”.

And the “Interpretation of zone as per CLSI recommendations” value (E. coli B-89 [6]; Table 5, ESBL inhibitor 0 mcg)?
Its value is “(R)”.

What about the “Interpretation of zone as per CLSI recommendations” value (E. coli B-89 [6]; Table 5, with Sulbactam 10 mcg) of the same molecule?
The value was “(R)”.

And the “Interpretation of zone as per CLSI recommendations” value (E. coli B-89 [6]; Table 6, ESBL inhibitor 0 mcg)?
Its value is “(R)”.

What about the “Interpretation of zone as per CLSI recommendations” value (E. coli B-89 [6]; Table 6, with Sulbactam 10 mcg) of the same molecule?
Its value is “(R)”.

What about the “Zone of Inhibition” value (E. coli B-89 [6]; with Sulbactam 10 mcg) of the same molecule?
The value was “Nil”.
